# Results published in patent publication US6472152B1 (priority 1998, dated 2002).
# Values joined by “and” are separate entries in the source; they are usually repeats but may differ in a detail not shown here. Equal values may be shown once. Read-outs that look alike come from different tables or passages of the source.
# Tests used:
# [1] = tested on: TA104 recN2-4 and TA104 pr1 strain
# [2] = tested on: Salmonella typhimurium TA104 recN2-4
# [3] = tested on: Salmonella typhimurium TA104 pr1
# [4] = tested on: Salmonella typhimurium TA104 recN2-4; details: van der Lelie et al, 1997; cited from earlier work
# [5] = tested on: SOS signal; details: normally; cited from earlier work
# [6] = without S9-mix, ratio of mean S/N values
# [7] = without S9-mix, maximal S/N, 60-240 min
# [8] = without S9-mix, ratio of maximal S/N values
# [9] = without S9-mix, within the dose-range tested
compound,measurement,setting,value
Nc1ccc2c(c1)Cc1ccccc1-2 [2AF],concentration at which S/R's of rec/pri >1.5 MAX,[1],0.2 ppm
same,concentration at which S/R's of rec/pri >1.5 MEAN,[1],0.2 ppm
CO[C@@]12[C@H](COC(N)=O)C3=C(C(=O)C(C)=C(N)C3=O)N1C[C@@H]1N[C@@H]12 [MMC],concentration at which S/R's of rec/pri >1.5 MEAN,[1]; [6],15.6 ppb
COC(=O)N/N=C/c1c[n+]([O-])c2ccccc2[n+]1[O-] [Carbadox],concentration at which S/R > 2 (recN2 − 4),[2]; [7],0.08 ppm
same,concentration at which S/R's of rec/pri >1.5 MAX,[1]; [8],0.08 ppm
same,concentration at which S/R's of rec/pri >1.5 MEAN,[1]; [6],0.04 ppm
COS(C)(=O)=O [MMS],concentration at which S/R > 2 (recN2 − 4),[2]; [7],16 ppm and 8 ppm
same,concentration at which S/R's of rec/pri >1.5 MAX,[1]; [8],8 ppm
same,concentration at which S/R's of rec/pri >1.5 MEAN,[1]; [6],8 ppm
O=C1OCCN1/N=C/c1ccc([N+](=O)[O-])o1 [Furazolidone],concentration at which S/R's of rec/pri >1.5 MAX,[1]; Salmonella typhimurium,0.5 ppb
COc1ccc2nc3cc(Cl)ccc3c(NCCCNCCCl)c2c1 [ICR 191 Acridine],Toxic (pri),[3],−
same,concentration at which S/R > 2 (recN2 − 4),[2],0.62 ppm
same,concentration at which S/R's of rec/pri >1.5 MAX,[1],1.25 ppm
same,concentration at which S/R's of rec/pri >1.5 MEAN,[1],0.31 ppm
CCN(CC)N=O [N-Nitrosodiethylamine],concentration at which S/R > 2 (recN2 − 4),[2]; S9-mix +25 μl/ml,120 ppm
same,concentration at which S/R's of rec/pri >1.5 MAX,[1]; S9-mix +25 μl/ml,120 ppm
same,concentration at which S/R's of rec/pri >1.5 MEAN,[1]; S9-mix +25 μl/ml,240 ppm
c1ccc2c(c1)ccc1c3ccccc3ccc21 [Chrysene],concentration at which S/R's of rec/pri >1.5 MAX,[1]; S9-mix +100 μl/ml,10 ppm
same,concentration at which S/R's of rec/pri >1.5 MEAN,[1]; S9-mix +100 μl/ml,5 ppm
c1ccc2c(c1)-c1cccc3cccc-2c13 [Fluoranthene],Toxic (pri),[3],−
same,concentration at which S/R > 2 (recN2 − 4),[2]; Salmonella typhimurium,3.1 ppm
same,concentration at which S/R's of rec/pri >1.5 MAX,[1]; Salmonella typhimurium,3.1 ppm
same,concentration at which S/R's of rec/pri >1.5 MEAN,[1]; Salmonella typhimurium,3.1 ppm
ClCC1CO1 (centres unmarked) [Epichlorohydrine],S/N values in the pr1 strain,[3],~1
same,toxicity evaluation,[3],not toxic in the given dose-range
same,S/N values in the recN2-4 strain,[2],> 2
same,genotoxicity evaluation,[1],genotoxic
Coumermycine A1,Toxic (pri),[3],+
O=[N+]([O-])c1ccc2c3c(cccc13)-c1ccccc1-2 [3-Nitrofluoranthene],concentration at which S/R > 2 (recN2 − 4),[2]; S9-mix +25 μl/ml,15.7 ppb
same,concentration at which S/R > 2 (recN2 − 4),[2]; [7],15.7 ppb
same,concentration at which S/R > 2 (recN2 − 4),"[2]; without S9-mix, maximal S/N, 60-240 min, listed as 3Nitrofluoranthene",0.032 ppm
same,concentration at which S/R's of rec/pri >1.5 MAX,[1]; S9-mix +25 μl/ml,31.2 ppb
same,concentration at which S/R's of rec/pri >1.5 MEAN,[1]; S9-mix +25 μl/ml,15.7 ppb
same,concentration at which S/R's of rec/pri >1.5 MAX,[1]; [8],31.3 ppb
same,concentration at which S/R's of rec/pri >1.5 MAX,"[1]; without S9-mix, ratio of maximal S/N values, listed as 3Nitrofluoranthene",0.064 ppm
same,concentration at which S/R's of rec/pri >1.5 MEAN,[1]; [6],15.7 ppb
same,concentration at which S/R's of rec/pri >1.5 MEAN,"[1]; without S9-mix, ratio of mean S/N values, listed as 3Nitrofluoranthene",0.032 ppm
Nc1ccc([N+](=O)[O-])cc1N [4Nitro-o-Phenylenediamine],concentration at which S/R > 2 (recN2 − 4),[2]; S9-mix +25 μl/ml,12.5 ppm
same,concentration at which S/R > 2 (recN2 − 4),[2]; [7],3.1 ppm
same,concentration at which S/R's of rec/pri >1.5 MAX,[1]; S9-mix +25 μl/ml,12.5 ppm
same,concentration at which S/R's of rec/pri >1.5 MEAN,[1]; S9-mix +25 μl/ml,12.5 ppm
same,concentration at which S/R's of rec/pri >1.5 MAX,[1]; [8],3.1 ppm
same,concentration at which S/R's of rec/pri >1.5 MEAN,[1]; [6],1.57 ppm
"[N-]=[N+]=[N-] [Sodium azide (NaN3), Sodium azide]",Toxic (pri),[3],+
same,S/N values in the pr1 strain,[3]; Salmonella typhimurium,greater than 2
same,"S/N, indications of toxicity obtained with time",[3]; Salmonella typhimurium,< 0.8
same,"response in the VITOTOX test with the recN2-4 strain alone, previously reported",[4],positive
same,S/N values in the recN2-4 strain,[2]; Salmonella typhimurium,greater than 2
same,genotoxicity evaluation,[1],non-genotoxic
same,score in the SOS chromotest,[5],negative
"O=[N+]([O-])c1ccc2c(c1)Cc1cc([N+](=O)[O-])ccc1-2 [2,7Dinitrofluoreen]",Toxic (pri),[3],−
same,concentration at which S/R > 2 (recN2 − 4),[2],0.62 ppm
same,concentration at which S/R's of rec/pri >1.5 MAX,[1],0.62 ppm
same,concentration at which S/R's of rec/pri >1.5 MEAN,[1],0.62 ppm
CCOS(C)(=O)=O [EMS],concentration at which S/R > 2 (recN2 − 4),[2]; [7],256 ppm
same,concentration at which S/R's of rec/pri >1.5 MAX,[1]; [8],256 ppm
same,concentration at which S/R's of rec/pri >1.5 MEAN,[1]; [6],256 ppm
c1ccc2c(c1)ccc1ccccc12 [Phenanthrene],Toxic (pri),"[3]; S9-mix +100 μl/ml, within the dose-range tested",+
same,concentration at which S/R > 2 (recN2 − 4),[2]; S9-mix +100 μl/ml,6.2 ppm
same,concentration at which S/R's of rec/pri >1.5 MAX,[1]; S9-mix +100 μl/ml,6.2 ppm
same,concentration at which S/R's of rec/pri >1.5 MEAN,[1]; S9-mix +100 μl/ml,6.2 ppm
CCn1cc(C(=O)O)c(=O)c2ccc(C)nc21 [Nalidixic acid],Toxic (pri),[3]; [9],+
same,concentration at which S/R > 2 (recN2 − 4),[2]; [7],0.16 ppm
same,concentration at which S/R's of rec/pri >1.5 MAX,[1]; [8],0.16 ppm
same,concentration at which S/R's of rec/pri >1.5 MEAN,[1]; [6],0.16 ppm
Nc1cccc2ccccc12 [a-Naphtylamine],concentration at which S/R's of rec/pri >1.5 MAX,[1],2.5 ppm
same,concentration at which S/R's of rec/pri >1.5 MEAN,[1],2.5 ppm
O=C(N/N=C/c1ccc([N+](=O)[O-])o1)c1ccc(O)cc1 [Nifuroxazide],toxicity evaluation,"[3]; light production, without S9mix",dose-dependent decrease in light production indicating toxicity
same,doses not toxic (S/N curves for the pr1 strain),"[3]; pr1 strain, FIG. 4",up to 0.16 ppm
same,Toxic (pri),[3]; [9],+
same,effect at higher doses,[1],toxicity combined with genotoxicity
